Laboratory results: patent publication US7144879B2, “Substituted metal-phthalocyanines, their preparation and the use thereof” (L. Molteni & C. Dei Fratelli, priority 2000, dated 2006)

Key:
Assay type in all cases: cell-based
[1] = tested on: 3T3 cells; experiment: Survival of 3T3 cells (model of mammalian cells) after photodynamic treatment; conditions: red light 650-750 nm, 50 mW/cm^2, PBS +5% DMSO, 5 min pre-incubation
Protocol: (§1) The irradiation is carried out with red light (650-750 nm), 50 mW/cm^2.

[2] = tested on: Staphylococcus aureus (ATCC 6538P, MRSA; Gram-positive); experiment: Photoinactivation of S. aureus (MRSA), survival after photodynamic treatment; conditions: red light 650-750 nm, 50 mW/cm^2, PBS +5% DMSO, 5 min pre-incubation
Description: (§2) The compounds synthesized have been assayed for their antifungal and antibacterial (Gram-positive e Gram-negative) activity. For the experiments the following micro-organisms were used: Candida albicans (ATCC10231; yeast), Staphylococcus aureus (ATCC 6538P, MRSA; Gram-positive), Escherichia coli (04; Gram-negative). All the micro-organisms were used in the experiments in a stationary state of growth. An example of experimental protocol used to assess the photoinactivation of micro-organisms is described as follows.
(§3) Cells in a stationary state of growth have been washed in physiological buffered saline solution (PBS) and diluted in order to obtain a cell suspension in the range 10^6÷10^9 cells/ml in PBS or appropriate medium.
(§4) Cell suspensions have then been treated with scalar aliquots of the photosensitising agent to be tested in the range 30÷0.01 μM, eventually as a photosensitizer conjugate. […] In order to determine the percentage of cell population after photoinactivation for each photosensitizer concentration, serially diluted samples resulting from the irradiation have been plated on Sabouraud Dextrose Agar (C. Albicans), on Tryptic Soy Agar (S. aureus), or on other suitable culture media and the data were compared with dark controls.
as §1

[3] = tested on: Escherichia coli (04; Gram-negative); experiment: Photoinactivation of E. coli, survival after photodynamic treatment; conditions: red light 650-750 nm, 50 mW/cm^2, PBS +5% DMSO, 5 min pre-incubation
Description: as §2, §3, §4, §1

[4] = tested on: Candida albicans (ATCC10231; yeast); experiment: Photoinactivation of C. albicans, survival after photodynamic treatment; conditions: 1 μM, red light 650-750 nm, 50 mW/cm^2, PBS +5% DMSO, 10 min pre-incubation
Description: as §2, §3, §4, §1

[5] = tested on: erythrocytes; experiment: Haemolytic properties, dark and light treatment; conditions: for % Haemolysis (Light treatment) 30 J/cm^2 (50 mW/cm^2 × 10 min): light 30 J/cm^2 (50 mW/cm^2 × 10 min)

Compound	Survival (%) ([1]; 1 μM, irradiation 1 min)	Survival (%) ([1]; 1 μM, irradiation 5 min)	Survival (%) ([1]; 10 μM, irradiation 1 min)	Survival (%) ([1]; 10 μM, irradiation 5 min)	Survival (%) ([2]; 1 μM, irradiation 1 min)	Survival (%) ([2]; 1 μM, irradiation 5 min)	Survival (%) ([2]; 10 μM, irradiation 1 min)	Survival (%) ([2]; 10 μM, irradiation 5 min)	Survival (%) ([3]; 1 μM, irradiation 1 min)	Survival (%) ([3]; 1 μM, irradiation 5 min)	Survival (%) ([3]; 10 μM, irradiation 1 min)	Survival (%) ([3]; 10 μM, irradiation 5 min)	Survival (%) ([4]; irradiation 1 min)	Survival (%) ([4]; irradiation 5 min)	% Haemolysis (Dark treatment) ([5]; concentration 0.5 μM)	% Haemolysis (Light treatment) 30 J/cm^2 (50 mW/cm^2 × 10 min) ([5]; concentration 0.5 μM)	% Haemolysis (Dark treatment) ([5]; concentration 1 μM)	% Haemolysis (Light treatment) 30 J/cm^2 (50 mW/cm^2 × 10 min) ([5]; concentration 1 μM)	% Haemolysis (Dark treatment) ([5]; concentration 5 μM)	% Haemolysis (Light treatment) 30 J/cm^2 (50 mW/cm^2 × 10 min) ([5]; concentration 5 μM)
2[1,3-bis-(trimethylammonium)2-propyloxy]zinc(II) phtalocyanine diiodide [Compound 18]	100%	97%	100%	94%	0.0002%	0.0001%	0.0001%	0.0001%	100%	100%	100%	2.34%	0.0001%	0.0001%						
CN1CCC(Oc2ccc3c4[n]5c(c3c2)=NC2=NC(=Nc3c6ccccc6c([n]3[Zn]5)N=C3N=C(N=4)c4ccccc43)c3ccccc32)CC1 [Compound 4]															4.7%	0.9%	1.5%	1.2%	1.5%	1.5%
